Test results reported in PMC11586601 (Journal of Inherited Metabolic Disease, 2024).

How the values were obtained:
cHuNAGS (linker-cleaved) [1] = target: cHuNAGS (linker-cleaved) (Homo sapiens, UniProt Q8N159, V350I); assay: biochemical
cHuNAGS (linker-cleaved) [2] = target: T1, cHuNAGS (linker-cleaved) (Homo sapiens, UniProt Q8N159); assay: biochemical
T1 sequence (Q8N159 95-534): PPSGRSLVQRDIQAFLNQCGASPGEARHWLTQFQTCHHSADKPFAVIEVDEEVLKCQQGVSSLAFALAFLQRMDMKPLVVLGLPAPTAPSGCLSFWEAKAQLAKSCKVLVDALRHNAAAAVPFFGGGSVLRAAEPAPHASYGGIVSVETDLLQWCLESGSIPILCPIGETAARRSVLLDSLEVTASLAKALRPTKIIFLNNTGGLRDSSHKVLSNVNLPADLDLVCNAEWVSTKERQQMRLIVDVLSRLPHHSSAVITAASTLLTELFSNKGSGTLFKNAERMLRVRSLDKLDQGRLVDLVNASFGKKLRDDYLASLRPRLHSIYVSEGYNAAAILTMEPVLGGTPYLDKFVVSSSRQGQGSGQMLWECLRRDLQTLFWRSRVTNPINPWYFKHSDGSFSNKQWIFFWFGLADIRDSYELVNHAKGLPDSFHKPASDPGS

SEC = target: the molecule itself; assay: SEC

cHuNAGS (linker-cleaved) (Homo sapiens, UniProt Q8N159, V350I), sequence (Q8N159 95-534 V350I): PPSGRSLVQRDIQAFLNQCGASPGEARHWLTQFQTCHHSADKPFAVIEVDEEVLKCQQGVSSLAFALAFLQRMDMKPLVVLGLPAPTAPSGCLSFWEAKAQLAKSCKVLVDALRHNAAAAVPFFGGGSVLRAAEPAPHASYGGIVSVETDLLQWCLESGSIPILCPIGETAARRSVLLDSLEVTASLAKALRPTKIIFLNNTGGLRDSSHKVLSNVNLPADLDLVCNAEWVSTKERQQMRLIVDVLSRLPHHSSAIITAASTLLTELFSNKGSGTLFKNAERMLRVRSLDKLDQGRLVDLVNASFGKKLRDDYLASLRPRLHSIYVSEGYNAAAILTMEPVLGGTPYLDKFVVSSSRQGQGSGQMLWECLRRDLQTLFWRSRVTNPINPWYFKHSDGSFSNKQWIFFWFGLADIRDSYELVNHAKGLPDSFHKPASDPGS

Molecule: N=C(N)NCCC[C@H](N)C(=O)O [arginine]
- EC50 (cHuNAGS (linker-cleaved) [1]): > 4000 µM
- EC50 (cHuNAGS (linker-cleaved) [2]): ~20 µM

B1: His6-MBP-cHuNAGS chimera (wild-type) (domain or fragment, human)
chain: LEVLFQGPMPPSGRSLVQRDIQAFLNQCGASPGEARHWLTQFQTCHHSADKPFAVIEVDEEVLKCQQGVSSLAFALAFLQRMDMKPLVVLGLPAPTAPSGCLSFWEAKAQLAKSCKVLVDALRHNAAAAVPFFGGGSVLRAAEPAPHASYGGIVSVETDLLQWCLESGSIPILCPIGETAARRSVLLDSLEVTASLAKALRPTKIIFLNNTGGLRDSSHKVLSNVNLPADLDLVCNAEWVSTKERQQMRLIVDVLSRLPHHSSAVITAASTLLTELFSNKGSGTLFKNAERMLRVRSLDKLDQGRLVDLVNASFGKKLRDDYLASLRPRLHSIYVSEGYNAAAILTMEPVLGGTPYLDKFVVSSSRQGQGSGQMLWECLRRDLQTLFWRSRVTNPINPWYFKHSDGSFSNKQWIFFWFGLADIRDSYELVNHAKGLPDSFHKPASDPGS
- binding result (SEC): binds
